Laboratory results reported in US9655887B2, “Pharmaceutical composition and the use thereof, and application regime of said pharmaceutical composition for on-demand contraception” (BAYER PHARMA AKTIENGESELLSCHAFT, priority 2013, dated 2017).

Biological target: EP2 subtype of the human PGE2 receptor (hEP2 receptor) (Homo sapiens, UniProt P43116)
Experiment: cAMP antagonism test, human prostaglandin E2 (subtype EP2) receptor signal
Format: cell-based
From the text: 1. Detection of Antagonism to the Human Prostaglandin E2 (Subtype EP2) Receptor Signal
The binding of PGE2 to the EP2 subtype of the human PGE2 receptor induces the activation of membrane-located adenylate cyclases and leads to the formation of cAMP. In the presence of the phosphodiesterase inhibitor IBMX, the cAMP accumulated owing to this stimulation and released by cell lysis is used in a competitive detection method. In this test, the cAMP present in the lysate competes with a fluorescence-labelled cAMP (cAMP-d2) for binding to an Eu cryptate-labelled anti-cAMP antibody.
In the absence of cellular cAMP, a maximal signal is produced, which is attributable to the binding of this cAMP-d2 molecule to the antibody. After excitation of the […] at 337 nm, there is a fluorescence resonance energy transfer (FRET) to the Eu cryptate molecules of the anti-cAMP antibody (labelled therewith), followed by a long-lasting emission signal at 665 nm (and at […]). Both signals are measured in a suitable measurement instrument with a time delay, i.e. after decay of the background fluorescence. Any increase in the low FRET signal caused by prostaglandin E2 administration (measured as well ratio change=emission665nm/emission620nm*10000) indicates the action of antagonists.
1.2.1. Test for Antagonism (Data Per Well of a 384-Well Plate):
To a test plate with the substance solutions already added (0.05 μl; 100% DMSO, concentration range from 0.8 nM-16.5 nM) were added 4 μl of a cAMP-d2/cell suspension (625000 cells/ml). After a 20-minute preincubation at room temperature (RT), 2 μl of a 3×PGE2 solution (1.5 nM, in PBS-IBMX) were added and incubated in the presence of the agonist for a further 60 mins at RT (volume: […]). Next the reaction was stopped by addition of 2 μl of lysis buffer and incubated for a further 20 mins at RT before the actual measurement (volume: ˜8 μl).

Sequence of EP2 subtype of the human PGE2 receptor (hEP2 receptor) (P43116 whole entry): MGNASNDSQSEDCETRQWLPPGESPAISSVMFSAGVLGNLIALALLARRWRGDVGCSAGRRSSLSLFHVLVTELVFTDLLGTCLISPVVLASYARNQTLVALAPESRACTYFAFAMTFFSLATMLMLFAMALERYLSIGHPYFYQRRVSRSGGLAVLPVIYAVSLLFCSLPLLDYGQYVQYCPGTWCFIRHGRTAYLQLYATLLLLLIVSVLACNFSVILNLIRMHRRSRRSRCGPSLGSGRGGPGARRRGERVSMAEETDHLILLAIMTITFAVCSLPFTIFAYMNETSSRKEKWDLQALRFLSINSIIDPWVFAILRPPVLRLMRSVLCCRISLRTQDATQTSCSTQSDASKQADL

IC50, > 50 nM:
COCCNC(=O)c1ccc2nn(CC3CCN(C(=O)c4ccc(Oc5ccccc5)cc4)CC3)cc2c1C [Example E18, N-(2-methoxyethyl)-4-methyl-2-{[1-(4-phenoxybenzoyl)piperidin-4-yl]methyl}-2H-indazole-5-carboxamide]
COCCNC(=O)c1ccc2nn(CC3CCN(C(=O)c4ccc(C5CC5)cc4)CC3)cc2c1C [Example E19, 2-{[1-(4-cyclopropylbenzoyl)piperidin-4-yl]methyl}-N-(2-methoxyethyl)-4-methyl-2H-indazole-5-carboxamide]
COCCNC(=O)c1ccc2nn(CC3CCN(C(=O)c4ccc(OC)cc4)CC3)cc2c1C [Example E20, 2-{[1-(4-methoxybenzoyl)piperidin-4-yl]methyl}-N-(2-methoxyethyl)-4-methyl-2H-indazole-5-carboxamide]
COCCNC(=O)c1ccc2nn(CC3CCN(C(=O)c4ccc(F)cc4)CC3)cc2c1C [Example E21, 2-{[1-(4-fluorobenzoyl)piperidin-4-yl]methyl}-N-(2-methoxyethyl)-4-methyl-2H-indazole-5-carboxamide]
COCCNC(=O)c1ccc2nn(CC3CCN(C(=O)c4ccc(C(F)(F)F)cc4)CC3)cc2c1C [Example E22, N-(2-methoxyethyl)-4-methyl-2-({1-[4-(trifluoromethyl)benzoyl]piperidin-4-yl}-methyl)-2H-indazole-5-carboxamide]
COCCNC(=O)c1ccc2nn(CC3CCN(C(=O)c4ccc(S(=O)(=O)C(F)(F)F)cc4)CC3)cc2c1C [Example E24, N-(2-methoxyethyl)-4-methyl-2-[(1-{4-[(trifluoromethyl)sulphonyl]benzoyl}piperidin-4-yl)methyl]-2H-indazole-5-carboxamide]
COCCNC(=O)c1ccc2nn(CC3CCN(C(=O)c4cccc(C(F)(F)F)c4)CC3)cc2c1C [Example E25]
COCCNC(=O)c1ccc2nn(CC3CCN(C(=O)c4cccc(C)c4)CC3)cc2c1C [Example E26, N-(2-methoxyethyl)-4-methyl-2-{[1-(3-methylbenzoyl)piperidin-4-yl]methyl}-2H-indazole-5-carboxamide]
COCCNC(=O)c1ccc2nn(CC3CCN(C(=O)c4cccc(Cl)c4)CC3)cc2c1C [Example E27, 2-{[1-(3-chlorobenzoyl)piperidin-4-yl]methyl}-N-(2-methoxyethyl)-4-methyl-2H-indazole-5-carboxamide]
COCCNC(=O)c1ccc2nn(CC3CCN(C(=O)c4ccc(OC5CCCC5)cc4)CC3)cc2c1C [Example E29, 2-({1-[4-(cyclopentyloxy)benzoyl]piperidin-4-yl}methyl)-N-(2-methoxyethyl)-4-methyl-2H-indazole-5-carboxamide]
COCCNC(=O)c1ccc2nn(CC3CCN(C(=O)c4ccc(C(F)F)cc4)CC3)cc2c1C [Example E30, 2-({1-[4-(difluoromethyl)benzoyl]piperidin-4-yl}methyl)-N-(2-methoxyethyl)-4-methyl-2H-indazole-5-carboxamide]
COCCNC(=O)c1ccc2nn(CC3CCN(C(=O)c4ccc(C#N)cc4)CC3)cc2c1C [Example E31, 2-{[1-(4-cyanobenzoyl)piperidin-4-yl]methyl}-N-(2-methoxyethyl)-4-methyl-2H-indazole-5-carboxamide]
COCCNC(=O)c1ccc2nn(CC3CCN(C(=O)c4ccc(-n5cccn5)cc4)CC3)cc2c1C [Example E36, N-(2-methoxyethyl)-4-methyl-2-({1-[4-(1H-pyrazol-1-yl)benzoyl]piperidin-4-yl}-methyl)-2H-indazole-5-carboxamide]
COCCNC(=O)c1ccc2nn(CC3CCN(C(=O)c4ccc(OC(F)F)cc4F)CC3)cc2c1C [Example E38, 2-({1-[4-(difluoromethoxy)-2-fluorobenzoyl]piperidin-4-yl}methyl)-N-(2-methoxy-ethyl)-4-methyl-2H-indazole-5-carboxamide]
COCCNC(=O)c1ccc2nn(CC3CCN(C(=O)c4ccc(N5CCCC5)cc4F)CC3)cc2c1C [Example E39, 2-({1-[2-fluoro-4-(pyrrolidin-1-yl)benzoyl]piperidin-4-yl}methyl)-N-(2-methoxyethyl)-4-methyl-2H-indazole-5-carboxamide]
COCCNC(=O)c1ccc2nn(CC3CCN(C(=O)c4ccc(-c5ccc(F)cc5)cc4F)CC3)cc2c1C [Example E40, 2-({1-[(3,4′-difluorobiphenyl-4-yl)carbonyl]piperidin-4-yl}methyl)-N-(2-methoxyethyl)-4-methyl-2H-indazole-5-carboxamide]
COCCNC(=O)c1ccc2nn(CC3CCN(C(=O)c4ccc(-c5ccc(OC)cc5)cc4F)CC3)cc2c1C [Example E41, 2-({1-[(3-fluoro-4′-methoxybiphenyl-4-yl)carbonyl]piperidin-4-yl}methyl)-N-(2-methoxyethyl)-4-methyl-2H-indazole-5-carboxamide]
COCCNC(=O)c1ccc2nn(CC3CCN(C(=O)c4ccc(-c5ccccc5OC(F)(F)F)cc4F)CC3)cc2c1C [Example E44, 2-[(1-{[3-fluoro-2′-(trifluoromethoxy)biphenyl-4-yl]carbonyl}piperidin-4-yl)methyl]-N-(2-methoxyethyl)-4-methyl-2H-indazole-5-carboxamide]
COCCNC(=O)c1ccc2nn(CC3CCN(C(=O)c4ccc(-c5ccccc5F)cc4)CC3)cc2c1C [Example E45, 2-({1-[(2′-fluorobiphenyl-4-yl)carbonyl]piperidin-4-yl}methyl)-N-(2-methoxyethyl)-4-methyl-2H-indazole-5-carboxamide]
COCCNC(=O)c1ccc2nn(CC3CCN(C(=O)c4ccc(-c5ccc(F)cc5F)cc4)CC3)cc2c1C [Example E46, 2-({1-[(2′,4′-difluorobiphenyl-4-yl)carbonyl]piperidin-4-yl}methyl)-N-(2-methoxy-ethyl)-4-methyl-2H-indazole-5-carboxamide]
COCCNC(=O)c1ccc2nn(CC3CCN(C(=O)c4ccc(-c5ccccc5)c(F)c4)CC3)cc2c1C [Example E47, 2-({1-[(2-fluorobiphenyl-4-yl)carbonyl]piperidin-4-yl}methyl)-N-(2-methoxyethyl)-4-methyl-2H-indazole-5-carboxamide]
COCCNC(=O)c1ccc2nn(CC3CCN(C(=O)c4ccc(-c5ccccc5C)cc4)CC3)cc2c1C [Example E48, N-(2-methoxyethyl)-4-methyl-2-({1-[(2′-methylbiphenyl-4-yl)carbonyl]piperidin-4-yl}-methyl)-2H-indazole-5-carboxamide]
COCCNC(=O)c1ccc2nn(CC3CCN(C(=O)c4ccc(N5CCOCC5)cc4F)CC3)cc2c1C [Example E51, 2-({1-[2-fluoro-4-[morpholin-4-yl)benzoyl]piperidin-4-yl}methyl)-N-(2-methoxyethyl)-4-methyl-2H-indazole-5-carboxamide]
COCCNC(=O)c1ccc2nn(CC3CCN(C(=O)c4ccc(Br)cc4)CC3)cc2c1C [Example E52, 2-{[1-(4-bromobenzoyl)piperidin-4-yl]methyl}-N-(2-methoxyethyl)-4-methyl-2H-indazole-5-carboxamide]
COCCNC(=O)c1ccc2nn(CC3CCN(C(=O)c4ccc(OC(F)(F)F)cc4)CC3)cc2c1C [Example E53, N-(2-methoxyethyl)-4-methyl-2-({1-[4-(trifluoromethoxy)benzoyl]piperidin-4-yl}-methyl)-2H-indazole-5-carboxamide]
COCCNC(=O)c1ccc2nn(CC3CCN(C(=O)c4ccc(Cl)cc4)CC3)cc2c1C [Example E54, 2-{[1-(4-chlorobenzoyl)piperidin-4-yl]methyl}-N-(2-methoxyethyl)-4-methyl-2H-indazole-5-carboxamide]
COCCNC(=O)c1ccc2nn(CC3CCN(C(=O)c4ccc(SC(F)(F)F)cc4)CC3)cc2c1C [Example E55, N-(2-methoxyethyl)-4-methyl-2-[(1-{4-[(trifluoromethyl)sulphanyl]benzoyl}piperidin-4-yl)methyl]-2H-indazole-5-carboxamide]
Cc1c(C(=O)NCCOCC2CC2)ccc2nn(CC3CCN(C(=O)c4ccc(Cl)cc4)CC3)cc12 [Example E59, 2-{[1-(4-chlorobenzoyl)piperidin-4-yl]methyl}-N-[2-(cyclopropylmethoxy)ethyl]-4-methyl-2H-indazole-5-carboxamide]
Cc1ccc(C(=O)N2CCC(Cn3cc4c(C)c(C(=O)NCCOCC5CC5)ccc4n3)CC2)cc1 [Example E60, N-[2-(cyclopropylmethoxy)ethyl]-4-methyl-2-{[1-(4-methylbenzoyl)piperidin-4-yl]-methyl}-2H-indazole-5-carboxamide]
